Reference: patent US20250312323A1 (Cavion, Inc., priority 2018, published 2025)

Experiments:
[1] = test system: patients with essential tremor; assay: T-CALM: TETRAS performance subscale, independent video raters; assay type: in vivo, human; conditions: Day 28
Description: (§1) Both sets of scores were statistically analyzed.

[2] = test system: patients with essential tremor; assay: T-CALM: TETRAS activities of daily living subscale; assay type: in vivo, human; conditions: for TETRAS-ADL Score change from baseline, Median (minimum, maximum): Day 15, post-hoc
Experimental: The sum of the individual scores provides the overall score, ranging from 0 to 48. The complete TETRAS ADL Subscale is as follows.
Analyses of the TETRAS-ADL was conducted using the same type of ANCOVA model as described for the TETRAS-PS, using two-sided tests at the alpha=0.05 level of significance (FIG. 2 and Table 2).
as §1

[3] = test system: patients with essential tremor; assay: T-CALM: Patient Global Impression of Change (PGIC); assay type: in vivo, human; conditions: for PGIC score (rescaled −3 to 3), LS mean (SE): ANCOVA
[4] = test system: patients with essential tremor; assay: T-CALM: PK/PD, Cmin exposure vs change in TETRAS-PS (Hill equation); assay type: in vivo, human; conditions: steady state, estimated
Description: Evaluation of the relationship between the Cmin exposure level of CX-8998 and response (E) as measured by change from baseline in TETRAS-PS using the Hill Equation: […]
Pharmacodynamic variables (Response) evaluated included change from baseline in TETRAS performance subscale, TETRAS activities of daily living, TETRAS total score.

[5] = test system: patients with essential tremor; assay: T-CALM: electrocardiogram, vital signs, clinical laboratory, examinations; assay type: in vivo, human
Experimental: Electrocardiogram results were calculated as the average of the triplicate records at each time point. Baseline was defined as the mean of the triplicate values obtained pre-dose at Day 1. If this value was not available, the mean of the triplicate records obtained at screening were used.
Safety procedures involved collection of all TEAEs (treatment-emergent adverse events) coded into the Medical Dictionary for Regulatory Activities (MedDRA) version 20. Adverse events were classified by maximum severity, drug-related adverse events, serious adverse events, and adverse events leading to patient discontinuation.

EEG alpha power = assay: Human pharmaco-EEG alpha power (Study PN001/Part II); assay type: in vivo; conditions: at plasma concentrations greater than 200 to 300 nM (4 mg BID)
Description: FIG. 91 contains a graph showing the analysis of awake EEG absolute power for Alpha band (Electrode site Oz, eyes closed condition) (Study PN001/Part II).
FIG. 92 contains a graph showing the pharmacokinetic/pharmacodynamic analysis of EEG Alpha power (Study PN001/Part 1). BID=twice daily; EEG=electroencephalogram; MK=CX-8998; PBO=placebo; PD=pharmacodynamic.

[6] = Pharmacokinetics of MR2 CX-8998 in fed versus fasted subjects; assay type: in vivo, human; conditions: MR2 CX-8998, single dose 1×8 mg
Solubility of CX-8998 = assay type: physicochemical; conditions: at higher pH values
Description: Sustained release (SR) beads were developed with multiple types of sustained release and enteric coatings. Some SR matrix beads were developed using typical polymers (e.g., hydroxypropyl methylcellulose or carbopol) to achieve sustained release. Some SR matrix beads were developed using pH independent sustained release osmotic pumps to achieve zero order release from the tablet. […] Some SR matrix beads were developed using Eudragit RS/RL30D coating of IR beads to achieve an approach that depends on slow erosion of coating thereby sustaining the release of the drug from an IR matrix.

[7] = test system: patients with essential tremor; assay: T-CALM: QUEST questionnaire, items on anti-tremor medication; assay type: in vivo, human
[8] = test system: patients with essential tremor; assay: T-CALM: TETRAS performance subscale, investigator rated
[9] = Day 15, change from baseline, N = 39
[10] = Day 28, change from baseline, N = 37

- effect of fed vs fasted state on early absorption [6]: impacts early absorption
- solubility (Solubility of CX-8998): poor solubility
SMILES: CC(C)c1ccc(CC(=O)N[C@H](C)c2ccc(OCC(F)(F)F)cn2)cc1 [CX-8998]
- LS mean (±SE) change from baseline in TETRAS-PS scored by independent video raters (primary endpoint) [1]: −1.8±0.81
- Subjects with improvement of at least 5 points by TETRAS-ADL score, number ([2]; Day 15, N 39): 18
- TETRAS-ADL Score, subjects with 0 change, n (%) [2, 9]: 2 (5.1%)
- TETRAS-ADL Score, subjects with >0 to 1 point improvement, n (%) [2, 9]: 5 (12.8%)
- TETRAS-ADL Score, subjects with >0 to 1 point worsening, n (%) [2, 9]: 1 (2.6%)
- TETRAS-ADL Score, subjects with >1 to 2.5 point improvement, n (%) [2, 9]: 2 (5.1%)
- TETRAS-ADL Score, subjects with >1 to 2.5 point worsening, n (%) [2, 9]: 3 (7.7%)
- TETRAS-ADL Score, subjects with >2.5 to 5 point improvement, n (%) [2, 9]: 7 (17.9%)
- TETRAS-ADL Score, subjects with >2.5 to 5 point worsening, n (%) [2, 9]: 3 (7.7%)
- TETRAS-ADL Score, subjects with >5 to 10 point improvement, n (%) [2, 9]: 11 (28.2%)
- TETRAS-ADL Score, subjects with >5 to 10 point worsening, n (%) [2, 9]: 0
- TETRAS-ADL Score, subjects with >10 point improvement, n (%) [2, 9]: 5 (12.8%)
- TETRAS-ADL Score, subjects with >10 point worsening, n (%) [2, 9]: 0
- TETRAS-ADL Score change from baseline, Median (minimum, maximum) ([2]; patients Minimally Improved by CGI-I): −2.0 (−11, 3)
- TETRAS-ADL Score change from baseline, Median (minimum, maximum) ([2]; patients Minimally Improved by PGIC): −4.0 (−13, 4)
- Subjects with improvement of at least 5 points by TETRAS-ADL score, number ([2]; Day 28, N 37): 11
- TETRAS-ADL Score, subjects with 0 change, n (%) [2, 10]: 5 (13.5%)
- TETRAS-ADL Score, subjects with >0 to 1 point improvement, n (%) [2, 10]: 2 (5.4%)
- TETRAS-ADL Score, subjects with >0 to 1 point worsening, n (%) [2, 10]: 3 (8.1%)
- TETRAS-ADL Score, subjects with >1 to 2.5 point improvement, n (%) [2, 10]: 3 (8.1%)
- TETRAS-ADL Score, subjects with >1 to 2.5 point worsening, n (%) [2, 10]: 3 (8.1%)
- TETRAS-ADL Score, subjects with >2.5 to 5 point improvement, n (%) [2, 10]: 7 (18.9%)
- TETRAS-ADL Score, subjects with >2.5 to 5 point worsening, n (%) [2, 10]: 3 (8.1%)
- TETRAS-ADL Score, subjects with >5 to 10 point improvement, n (%) [2, 10]: 6 (16.2)
- TETRAS-ADL Score, subjects with >5 to 10 point worsening, n (%) [2, 10]: 0
- TETRAS-ADL Score, subjects with >10 point improvement, n (%) [2, 10]: 5 (13.5%)
- TETRAS-ADL Score, subjects with >10 point worsening, n (%) [2, 10]: 0
- PGIC Category 0 No change, patients, number (%) ([3]; Day 15): 11 (28%)
- PGIC Category 1 Minimally improved, patients, number (%) ([3]; Day 15): 17 (44%)
- PGIC Category 2 Much improved, patients, number (%) ([3]; Day 15): 8 (21%)
- PGIC Category 3 Very much improved, patients, number (%) ([3]; Day 15): 1 (3%)
- PGIC Category −1 Minimally worse, patients, number (%) ([3]; Day 15): 1 (3%)
- PGIC Category −2 Much worse, patients, number (%) ([3]; Day 15): 1 (3%)
- PGIC Category −3 Very much worse, patients, number (%) ([3]; Day 15): 0
- mean PGIC score vs placebo ([3]; Day 15): significantly greater (improved)
- PGIC Score, subjects 0 - no change, n (%) ([3]; Day 15, N = 39): 11 (28%)
- PGIC Score, subjects 1 - minimally improved, n (%) ([3]; Day 15, N = 39): 17 (44%)
- PGIC Score, subjects 2 - much improved, n (%) ([3]; Day 15, N = 39): 8 (21%)
- PGIC Score, subjects 3 - very much improved, n (%) ([3]; Day 15, N = 39): 1 (3%)
- PGIC Score, subjects −1 - minimally worse, n (%) ([3]; Day 15, N = 39): 1 (3%)
- PGIC Score, subjects −2 - much worse, n (%) ([3]; Day 15, N = 39): 1 (3%)
- PGIC Score, subjects −3 - very much worse, n (%) ([3]; Day 15, N = 39): 0
- PGIC score (rescaled −3 to 3), LS mean (SE) ([3]; Day 15): 0.9 (0.17)
- PGIC Category 0 No change, patients, number (%) ([3]; Day 28): 14 (36%)
- PGIC Category 1 Minimally improved, patients, number (%) ([3]; Day 28): 10 (26%)
- PGIC Category 2 Much improved, patients, number (%) ([3]; Day 28): 7 (18%)
- PGIC Category 3 Very much improved, patients, number (%) ([3]; Day 28): 3 (8%)
- PGIC Category −1 Minimally worse, patients, number (%) ([3]; Day 28): 1 (3%)
- PGIC Category −2 Much worse, patients, number (%) ([3]; Day 28): 1 (3%)
- PGIC Category −3 Very much worse, patients, number (%) ([3]; Day 28): 1 (3%)
- mean PGIC score vs placebo ([3]; Day 28): trended toward significant improvement
- PGIC Score, subjects 0 - no change, n (%) ([3]; Day 28, head N = 39): 14 (36%)
- PGIC Score, subjects 1 - minimally improved, n (%) ([3]; Day 28, head N = 39): 10 (26%)
- PGIC Score, subjects 2 - much improved, n (%) ([3]; Day 28, head N = 39): 7 (18%)
- PGIC Score, subjects 3 - very much improved, n (%) ([3]; Day 28, head N = 39): 3 (8%)
- PGIC Score, subjects −1 - minimally worse, n (%) ([3]; Day 28, head N = 39): 1 (3%)
- PGIC Score, subjects −2 - much worse, n (%) ([3]; Day 28, head N = 39): 1 (3%)
- PGIC Score, subjects −3 - very much worse, n (%) ([3]; Day 28, head N = 39): 1 (3%)
- PGIC score (rescaled −3 to 3), LS mean (SE) ([3]; Day 28): 0.8 (0.19)
- Emax, change from baseline in TETRAS-PS vs Cmin (Hill equation) [4]: approximately −4.1
- clinical laboratory parameters vs placebo [5]: No clinically meaningful differences
- vital signs, ECG, neurological and physical examinations [5]: No clinically significant abnormalities
- reduction of EEG alpha power (EEG alpha power): ≥ 25%
- effect of fed state on overall exposure as measured by AUC [6]: does not appear to significantly impact overall exposure
- effect of fed vs fasted state on late absorption [6]: does not appear to significantly impact late absorption
- QUEST: Side effect from tremor medication in past month? answer No, patients, number (%) ([7]; Day 15): 25 (64%)
- QUEST: Side effect from tremor medication in past month? answer Yes, patients, number (%) ([7]; Day 15): 14 (36%)
- QUEST: Side effect from tremor medication in past month? answer No, patients, number (%) ([7]; Day 28): 30 (77%)
- QUEST: Side effect from tremor medication in past month? answer Yes, patients, number (%) ([7]; Day 28): 7 (18%)
- TETRAS-PS Score, subjects with 0 change, n (%) [8, 9]: 2 (5.1%)
- TETRAS-PS Score, subjects with >0 to 1 point improvement, n (%) [8, 9]: 3 (7.7%)
- TETRAS-PS Score, subjects with >0 to 1 point worsening, n (%) [8, 9]: 2 (5.1%)
- TETRAS-PS Score, subjects with >1 to 2.5 point improvement, n (%) [8, 9]: 4 (10.3%)
- TETRAS-PS Score, subjects with >1 to 2.5 point worsening, n (%) [8, 9]: 5 (12.8%)
- TETRAS-PS Score, subjects with >2.5 to 5 point improvement, n (%) [8, 9]: 10 (25.6%)
- TETRAS-PS Score, subjects with >2.5 to 5 point worsening, n (%) [8, 9]: 2 (5.1%)
- TETRAS-PS Score, subjects with >5 to 10 point improvement, n (%) [8, 9]: 8 (20.5%)
- TETRAS-PS Score, subjects with >5 to 10 point worsening, n (%) [8, 9]: 0
- TETRAS-PS Score, subjects with >10 point improvement, n (%) [8, 9]: 3 (7.7%)
- TETRAS-PS Score, subjects with >10 point worsening, n (%) [8, 9]: 0
- LS mean (±SE) change from baseline in TETRAS-PS scored by investigators (in person), primary endpoint analysis ([8]; Day 28): −4.8±0.80
- Subjects with improvement of at least 5 points by TETRAS-PS score, number ([8]; Day 28, N 37): 16
- Subjects with improvement of at least 5 points by TETRAS-PS score, percent ([8]; Day 28, N 37): (43.2%)
- TETRAS-PS Score, subjects with 0 change, n (%) [8, 10]: 1 (2.6%)
- TETRAS-PS Score, subjects with >0 to 1 point improvement, n (%) [8, 10]: 6 (15.4%)
- TETRAS-PS Score, subjects with >0 to 1 point worsening, n (%) [8, 10]: 2 (5.1%)
- TETRAS-PS Score, subjects with >1 to 2.5 point improvement, n (%) [8, 10]: 5 (12.8%)
- TETRAS-PS Score, subjects with >1 to 2.5 point worsening, n (%) [8, 10]: 1 (2.6%)
- TETRAS-PS Score, subjects with >2.5 to 5 point improvement, n (%) [8, 10]: 11 (28.2%)
- TETRAS-PS Score, subjects with >2.5 to 5 point worsening, n (%) [8, 10]: 1 (2.6%)
- TETRAS-PS Score, subjects with >5 to 10 point improvement, n (%) [8, 10]: 8 (20.5%)
- TETRAS-PS Score, subjects with >5 to 10 point worsening, n (%) [8, 10]: 0
- TETRAS-PS Score, subjects with >10 point improvement, n (%) [8, 10]: 4 (10.3%)
- TETRAS-PS Score, subjects with >10 point worsening, n (%) [8, 10]: 0
